According to ChEMBL document CHEMBL2390878, “Novel 1H-imidazol-2-amine derivatives as potent and orally active vascular adhesion protein-1 (VAP-1) inhibitors for diabetic macular edema treatment” (Bioorg Med Chem, 2013):
Activity calls are given as the source filed them. The calls are words filed in the database; no cut-off is given here.

How the values were obtained:
[1] = biological target: T1, Amine oxidase [copper-containing] 3 (Homo sapiens, UniProt Q16853); assay: Inhibition of human VAP-1 expressed in CHO cells using [14C]-benzylamine as substrate preincubated for 30 mins prior to substrate addition measured after 1 hr by scintillation spectrometric analysis; format: cell-based
T1 sequence (Q16853 whole entry): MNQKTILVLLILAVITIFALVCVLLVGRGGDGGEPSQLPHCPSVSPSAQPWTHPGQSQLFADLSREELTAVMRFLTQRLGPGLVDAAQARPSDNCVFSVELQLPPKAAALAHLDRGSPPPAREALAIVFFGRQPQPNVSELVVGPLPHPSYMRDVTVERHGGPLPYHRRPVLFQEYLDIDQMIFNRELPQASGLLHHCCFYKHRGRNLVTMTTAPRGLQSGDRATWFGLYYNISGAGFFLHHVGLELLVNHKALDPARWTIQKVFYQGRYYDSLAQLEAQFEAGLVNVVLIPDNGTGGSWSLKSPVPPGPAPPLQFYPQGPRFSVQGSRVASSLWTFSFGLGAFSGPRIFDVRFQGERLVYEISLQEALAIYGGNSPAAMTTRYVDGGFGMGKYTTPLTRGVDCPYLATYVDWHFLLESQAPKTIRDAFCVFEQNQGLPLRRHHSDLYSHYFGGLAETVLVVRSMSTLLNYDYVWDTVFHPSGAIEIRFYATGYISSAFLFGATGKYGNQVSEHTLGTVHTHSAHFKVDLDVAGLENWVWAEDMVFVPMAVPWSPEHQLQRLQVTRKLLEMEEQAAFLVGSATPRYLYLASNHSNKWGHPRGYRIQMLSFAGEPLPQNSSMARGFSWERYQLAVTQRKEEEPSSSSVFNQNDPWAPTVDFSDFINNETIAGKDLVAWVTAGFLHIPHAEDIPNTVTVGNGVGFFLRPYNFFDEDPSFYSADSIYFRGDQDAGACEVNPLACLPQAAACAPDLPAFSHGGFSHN

[2] = biological target: T2, Amine oxidase [copper-containing] 3 (Rattus norvegicus, UniProt O08590); assay: Inhibition of rat VAP-1 expressed in CHO cells using [14C]-benzylamine as substrate preincubated for 30 mins prior to substrate addition measured after 1 hr by scintillation spectrometric analysis; format: cell-based
T2 sequence (O08590 whole entry): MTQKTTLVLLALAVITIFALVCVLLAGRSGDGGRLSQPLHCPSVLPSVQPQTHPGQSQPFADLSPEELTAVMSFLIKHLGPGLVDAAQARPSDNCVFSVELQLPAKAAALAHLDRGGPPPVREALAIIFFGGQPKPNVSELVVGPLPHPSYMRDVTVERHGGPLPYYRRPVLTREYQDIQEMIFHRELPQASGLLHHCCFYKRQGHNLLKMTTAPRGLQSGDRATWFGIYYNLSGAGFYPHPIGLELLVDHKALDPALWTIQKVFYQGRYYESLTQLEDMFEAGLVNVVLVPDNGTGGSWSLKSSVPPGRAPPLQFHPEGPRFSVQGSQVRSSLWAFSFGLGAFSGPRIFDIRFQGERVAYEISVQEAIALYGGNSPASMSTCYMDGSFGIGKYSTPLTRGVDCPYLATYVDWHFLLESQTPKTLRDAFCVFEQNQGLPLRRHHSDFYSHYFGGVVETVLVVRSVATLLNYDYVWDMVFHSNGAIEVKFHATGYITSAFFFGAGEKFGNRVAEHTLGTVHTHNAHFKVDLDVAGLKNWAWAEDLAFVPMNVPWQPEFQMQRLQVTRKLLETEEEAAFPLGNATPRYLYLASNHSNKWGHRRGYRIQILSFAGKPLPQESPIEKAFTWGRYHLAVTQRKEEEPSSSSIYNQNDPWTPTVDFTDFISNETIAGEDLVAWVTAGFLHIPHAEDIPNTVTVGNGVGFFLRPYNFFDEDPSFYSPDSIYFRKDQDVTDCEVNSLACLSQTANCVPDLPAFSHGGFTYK

Rattus norvegicus [3] = assay: Inhibition of VAP-1 in streptozotocin-induced diabetic Sprague-Dawley rat plasma using [14C]-benzylamine as substrate at 10 mg/kg, po administered for 2 weeks after streptozotocin-challenge by scintillation spectrometric analysis; format: functional, organism-based; set-up: dose 10 mg/kg
Homo sapiens [4] = species: Homo sapiens; assay: Selectivity ratio of IC50 for human recombinant MAO-B to IC50 for human VAP-1
Homo sapiens [5] = species: Homo sapiens; assay: Selectivity ratio of IC50 for human recombinant MAO-A to IC50 for human VAP-1
[6] = biological target: T3, Amine oxidase [flavin-containing] B (Homo sapiens, UniProt P27338); assay: Inhibition of human recombinant MAO-B using benzylamine as substrate after 1 hr by fluorometric assay
T3 sequence (P27338 whole entry): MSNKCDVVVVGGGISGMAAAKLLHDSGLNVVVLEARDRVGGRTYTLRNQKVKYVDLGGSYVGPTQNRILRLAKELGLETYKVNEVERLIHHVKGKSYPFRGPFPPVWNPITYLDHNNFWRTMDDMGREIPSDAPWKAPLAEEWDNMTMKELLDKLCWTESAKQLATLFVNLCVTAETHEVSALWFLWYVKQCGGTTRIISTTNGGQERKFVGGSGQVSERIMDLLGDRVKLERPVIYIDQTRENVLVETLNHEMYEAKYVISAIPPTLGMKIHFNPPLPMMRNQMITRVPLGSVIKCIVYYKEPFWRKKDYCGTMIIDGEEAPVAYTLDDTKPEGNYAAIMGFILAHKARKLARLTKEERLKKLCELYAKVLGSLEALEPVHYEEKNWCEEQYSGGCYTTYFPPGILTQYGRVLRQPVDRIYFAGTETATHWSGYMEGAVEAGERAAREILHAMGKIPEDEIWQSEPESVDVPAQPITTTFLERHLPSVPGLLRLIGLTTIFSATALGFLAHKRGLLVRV

Rattus norvegicus [7] = assay: Inhibition of ocular permeability in streptozotocin-induced diabetic Sprague-Dawley rat at 10 mg/kg, po administered for 2 weeks after streptozotocin-challenge measured 24 hrs after final administration of compound; format: functional, organism-based; set-up: dose 10 mg/kg; conditions: Eye
[8] = biological target: T4, Amine oxidase [flavin-containing] A (Homo sapiens, UniProt P21397); assay: Inhibition of human recombinant MAO-A using 5-hydroxytryptamine as substrate after 1 hr by fluorometric assay
T4 sequence (P21397 whole entry): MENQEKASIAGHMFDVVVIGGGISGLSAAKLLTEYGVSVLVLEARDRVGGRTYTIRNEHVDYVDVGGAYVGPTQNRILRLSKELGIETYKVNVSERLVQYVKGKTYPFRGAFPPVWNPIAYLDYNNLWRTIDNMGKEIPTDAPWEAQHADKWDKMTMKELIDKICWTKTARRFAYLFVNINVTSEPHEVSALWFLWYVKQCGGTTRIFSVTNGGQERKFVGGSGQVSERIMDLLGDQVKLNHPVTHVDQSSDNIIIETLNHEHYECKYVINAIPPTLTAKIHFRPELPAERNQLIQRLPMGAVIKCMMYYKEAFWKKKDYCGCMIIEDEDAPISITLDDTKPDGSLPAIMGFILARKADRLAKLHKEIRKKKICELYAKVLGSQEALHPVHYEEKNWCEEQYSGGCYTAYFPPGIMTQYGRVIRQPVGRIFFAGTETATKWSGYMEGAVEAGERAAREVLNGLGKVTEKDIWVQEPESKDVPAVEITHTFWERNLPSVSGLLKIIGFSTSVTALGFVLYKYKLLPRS

Compound	IC50 [1]	IC50 [2]	also measured
Nc1nc(-c2ccccc2)c[nH]1	> 100 µM	44 µM	–
c1ccc2[nH]cnc2c1 [BENZIMIDAZOLE]	> 100 µM	> 100 µM	–
c1ccc(NC2=NCCN2)cc1	> 100 µM	> 100 µM	–
Cn1c(N)nc2ccccc21	> 100 µM	80 µM	–
Nc1nc(Cc2ccccc2)c[nH]1	32 µM	0.42 µM	–
Cc1cccc2[nH]c(N)nc12	> 100 µM	1 µM	–
Nc1ncc[nH]1	> 100 µM	90 µM	–
CC(=O)Nc1nc(CCc2ccc(NC(=N)N)cc2)cs1	–	–	IC50 [6]: 60 µM; IC50 [8]: > 100 µM
Cc1ccc2nc(N)[nH]c2c1	> 100 µM	9.3 µM	–

Now from value to compound, other results behind:

IC50 [1]	IC50 [2]	Compound	also measured
4.1 µM	1 µM	Nc1nc2ccccc2[nH]1	–
2.2 µM	0.018 µM	CC(=O)Nc1nc(CCc2ccc(CCc3c[nH]c(N)n3)cc2)cs1	–
0.019 µM	0.0051 µM	CC(=O)Nc1nc(CCc2ccc(Cc3c[nH]c(N)n3)cc2)cs1	inhibition (Rattus norvegicus [3]): Active; Ratio IC50 (Homo sapiens [4]): > 580; Ratio IC50 (Homo sapiens [5]): > 580; IC50 [6]: 11 µM; inhibition (Rattus norvegicus [7]): Active; IC50 [8]: > 100 µM
> 100 µM	63 µM	Nc1cc2ccccc2[nH]1	–
13 µM	0.15 µM	CC(=O)Nc1nc(CCc2ccc(-c3c[nH]c(N)n3)cc2)cs1	–
> 100 µM	78 µM	N=C(N)Nc1ccccc1 [PHENYLGUANIDINE]	–
> 100 µM	4.8 µM	Nc1ncc(CCc2ccccc2)[nH]1	–
> 100 µM	> 100 µM	NCc1nc2ccccc2[nH]1	–
> 100 µM	> 100 µM	NC1=NCCN1c1ccccc1	–
